Reference: US5973114A, “Isolation and characterization of the growth hormone releasing hormone receptor” (priority 1992, dated 1999)
Entries after “also recorded” stand apart in the source; their conditions may differ. Each block holds one compound with its values, some of them ahead of it.

Columns and labels:
[1] = tested on: GHRH receptor (GHRH-R); test: 125I-GHRHa binding assay in crude ovine pituitary membrane pellets; details: for displacement of photoprobe binding to membrane pellets: both photoprobes; for competition for the 125I-GHRHa binding site: 100 nM competitor
Experimental: Specific binding is defined as the difference in the binding seen with 20 pM iodinated analog alone and binding of the analog in the presence of 10 nM non-iodinated GHRHa.
All steps were performed at 4° C. Frozen ovine or bovine anterior pituitaries (ovine: approximately 1 gm/pituitary obtained from Dr. Iain Clarke, Melbourne, Australia; bovine: approximately 2.5 gm/pituitary special handling from Pel-Freez, of Rogers, Ak.) were washed of blood, cleaned of connective tissue and homogenized (using a Dounce homogenizer) in 50 mM HEPES buffer, 100 mM NaCl, 10 mM EDTA, 0.1 μM EGTA, pH 7.4 with 0.5 mM PMSF (phenyl methyl sulfonyl fluoride), 10 μg/ml leupeptin, 10 μg/ml pepstatin A, and 200 U/ml (units/ml) aprotinin. This buffer is used to remove endogenous GTP which might be bound to G proteins and to restore high affinity binding. The homogenate was spun at top speed in a microfuge and the supernatant discarded. The upper (membrane) layer of the pellet was then gently resuspended in binding buffer containing 50 mM Tris buffer, 5 mM EGTA, 5 mM MgCl2, 50 μg/ml alamethicin, 30 μg/ml bacitracin and other protease inhibitors as above.
1/50 pituitary equivalent per tube was incubated in binding buffer with approximately 100,000 counts of iodinated probe in a volume of 500 μl at room temperature for 1 hour. The total counts delivered and the percent of counts bound for each tube was determined with 3 to 6 replicates per experimental condition. Saturation binding profiles were analyzed with the computer program Ligand which performs a statistically weighted least squares fit to the exact ligand binding equation in nontransformed coordinates.

[2] = tested on: GHRH-R (55 kDa band); test: photoaffinity cross-linking of the 55 kDa GHRH-R band, SDS-PAGE autoradiography; assay type: binding, ovine; details: 125I-GHRHa-ANB-NOS probe
Experimental: Photoprobe binding in ovine pituitary membrane pellets was determined by γ-counting and UV induced cross-linking was examined by autoradiagraphy of sodium dodecylsulfate polyacrylamide electrophoresis (SDS-PAGE) gels. ^125 I-GHRHa -ANB-NOS probe bound with an affinity of about one nanomole, nM (compared to about 160 picomole, pM, for GHRHa).
Photoprobe binding to membranes was evaluated with crude membrane binding assay and then analyzed further by SDS-PAGE electrophoresis to identify the binding sites. Photoprobes were incubated in the dark, photolysed for 10 minutes with a long wave (366 nm) UV lamp, and then the samples were pelleted. The pellets were counted and then extracted by boiling directly in SDS sample buffer (total SDS extracts). Alternatively, the labeled pellets were extracted in a mild detergent solution (5 mM CHAPS) centrifuged, and the chloroform/methanol concentrated supernatants denatured with SDS buffer (CHAPS extracts). These samples were then electrophoresed in SDS gels and autoradiographed.

[3] = molecular target: T1, secretin and VIP receptors (Homo sapiens, UniProt P47872); details: 10 μM; human pancreas; cited from earlier work
T1 construct: host or cells: human pancreas
T1 sequence (P47872 23-440): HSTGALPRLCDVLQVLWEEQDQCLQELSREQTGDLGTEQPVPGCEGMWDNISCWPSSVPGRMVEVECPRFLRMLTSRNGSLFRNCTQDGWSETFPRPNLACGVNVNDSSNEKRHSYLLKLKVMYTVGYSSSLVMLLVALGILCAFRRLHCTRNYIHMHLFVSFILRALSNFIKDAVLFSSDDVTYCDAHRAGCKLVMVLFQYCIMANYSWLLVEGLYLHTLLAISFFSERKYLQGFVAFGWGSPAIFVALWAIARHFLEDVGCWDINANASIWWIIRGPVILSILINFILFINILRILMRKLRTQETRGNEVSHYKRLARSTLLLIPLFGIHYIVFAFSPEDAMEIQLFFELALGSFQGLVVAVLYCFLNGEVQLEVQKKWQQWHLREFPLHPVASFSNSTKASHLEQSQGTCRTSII

Compound: Nc1nc2c(ncn2[C@@H]2O[C@H](COP(=O)(O)OP(=O)(O)OP(O)(O)=S)[C@@H](O)[C@H]2O)c(=O)[nH]1 [GTPγS]
reduction of the 55 kDa cross-linked band ([2]; 50 μM GTPγS): over 50%
displacement of photoprobe binding to membrane pellets ([1]; 50 μM GTPγS): partially displaced

Compound: GHRH(1-29)-NH2
inhibition of 125I-secretin binding [3]: 20%

Compound: pituitary adenylate cyclase activating peptide [PACAP]
competition for the 125I-GHRHa binding site [1]: did not compete; also recorded: no competition

Compound: vasoactive intestinal peptide [VIP]
effect on the 55 kDa cross-linked band ([2]; 100 nM VIP): unaffected
inhibition of 125I-secretin binding [3]: 20%
competition for the 125I-GHRHa binding site [1]: did not compete; also recorded: no competition

Second part, led by results:

effect on specific binding in the GHRH assay ([1]; preincubation with 1 mM DTT): completely eliminated
Compound: O[C@H](CS)[C@H](O)CS (racemic) [DTT, dithiothreitol]

displacement of photoprobe binding to membrane pellets ([1]; 10 nM GHRHa): totally displaced
Kd ([1]; crude ovine pituitary membrane pellets, program Ligand, read-out: Kd, saturation binding to a single high affinity site): ~160 pM
Compound: [His^1, Nle^27 ]-GHRH-(1-32)-NH2 [GHRHa]
effect on the 55 kDa cross-linked band ([2]; 10 nM GHRHa): completely eliminated
